# According to paper PMC4595737, “Cyclic diguanylate monophosphate directly binds to human siderocalin and inhibits its antibacterial activity” (Nature Communications, 2015):
# Assays:
# Assay type in all cases: binding
# Siderocalin (LCN2) [1] = biological target: T1, Siderocalin (LCN2) (Homo sapiens, UniProt P80188); test: ITC ([…], n=[…]); UV cross-linking with c-di-[…]GMP and cold competition
# T1 construct: recombinant human LCN2 (rLCN2) without a signal peptide fragment
# STING = biological target: T2, STING (Homo sapiens, UniProt Q86WV6); test: UV cross-linking with c-di-[…]GMP, SDS-PAGE autoradiography (STING as positive control)
# T2 construct: gene STING1
# T2 sequence (Q86WV6 whole entry): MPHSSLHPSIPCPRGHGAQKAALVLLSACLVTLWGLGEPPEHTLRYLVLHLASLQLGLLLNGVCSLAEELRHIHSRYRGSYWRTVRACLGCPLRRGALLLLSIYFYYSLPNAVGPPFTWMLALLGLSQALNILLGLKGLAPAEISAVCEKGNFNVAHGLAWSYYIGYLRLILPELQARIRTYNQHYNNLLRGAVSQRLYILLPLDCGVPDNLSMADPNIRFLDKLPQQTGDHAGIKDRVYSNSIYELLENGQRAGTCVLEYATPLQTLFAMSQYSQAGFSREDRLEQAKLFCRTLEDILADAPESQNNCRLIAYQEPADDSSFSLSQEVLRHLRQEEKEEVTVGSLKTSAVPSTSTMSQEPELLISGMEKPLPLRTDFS
# [2] = biological target: T3, Siderocalin (LCN2), rLCN2-W79A (Homo sapiens, UniProt P80188, W99A); test: ITC
# T3 construct: recombinant human LCN2 (rLCN2) without a signal peptide fragment
# T3 sequence (P80188 21-198 W99A): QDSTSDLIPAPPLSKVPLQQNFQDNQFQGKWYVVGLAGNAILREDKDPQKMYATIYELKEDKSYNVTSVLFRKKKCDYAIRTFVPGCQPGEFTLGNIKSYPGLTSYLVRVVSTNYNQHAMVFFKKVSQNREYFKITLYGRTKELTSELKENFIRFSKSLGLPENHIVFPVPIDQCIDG
# Siderocalin (LCN2) [3] = biological target: T1, Siderocalin (LCN2); test: ITC; competition with c-di-[…]GMP cross-linking
# T1 sequence (P80188 21-198): as the sequence (P80188 21-198 W99A) above, with A79W counted along it
Kd (Siderocalin (LCN2) [1]) [nM],SMILES,"UV cross-linking with c-di-[32P]GMP, SDS-PAGE autoradiography (STING as positive) (STING)",Kd [2] [nM],Kd (Siderocalin (LCN2) [3]) [nM]
1630 ± 50,Nc1nc2c(ncn2[C@@H]2O[C@@H]3COP(=O)(O)O[C@H]4[C@@H](O)[C@H](n5cnc6c(=O)[nH]c(N)nc65)O[C@@H]4COP(=O)(O)O[C@H]3[C@H]2O)c(=O)[nH]1 [c-di-GMP],"STING, as a positive control, could clearly bind to the second messenger as indicated by an autoradiograph signal",,
,O=C(N[C@H]1COC(=O)[C@@H](NC(=O)c2cccc(O)c2[O-])COC(=O)[C@@H](NC(=O)c2cccc(O)c2[O-])COC1=O)c1cccc(O)c1[O-].[Fe+3] [ferric enterobactin],,250 ± 50,240 ± 30
